Test results published in patent publication US20230093099A1, “COMPOUNDS AND METHODS OF TREATING CANCERS” (CULLGEN (SHANGHAI), INC., priority 2019, published 2023).

What follows are molecules tested on RS4;11 cells (assay: Cell viability assay (CellTiter-Glo) in RS4;11 cells). Details: Homo sapiens, 72 h; RS4;11 cells; cell viability, 3 days, CellTiter-Glo; read-out: IC50.
Type: cell-based
How it was run: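 RS4;11 cells seeded at 5000 per well, exposed for 3 days to 8- or 12-point 3-fold serial dilutions. Viability read by CellTiter-Glo luminescence; IC50 fitted by nonlinear least-squares regression.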

Compound | IC50 [nM]
CS(=O)(=O)c1ccc(-c2cccc3nc(Nc4ccc(N5CCN(CCCCCCOc6ccc7c(c6)C(=O)N(C6CCC(=O)NC6=O)C7=O)CC5)cc4)nn23)cc1 (stereo not drawn) [JA-256, 2-(2,6-Dioxopiperidin-3-yl)-5-((6-(4-(4-((5-(4-(methylsulfonyl)phenyl)-[1,2,4]triazolo[1,5-a]pyridin-2-yl)amino)phenyl)piperazin-1-yl)hexyl)oxy)isoindoline-1,3-dione] | 1900
O=C1CCC(N2C(=O)c3ccc(CCCCCCC(=O)N4CCC(n5cc(-c6cnc7cccc(-c8cc(F)c(CN9CCOCC9)c(F)c8)c7n6)cn5)CC4)cc3C2=O)C(=O)N1 (stereo not drawn) [JA-257, 5-(7-(4-(4-(8-(3,5-Difluoro-4-(morpholinomethyl)phenyl)quinoxalin-2-yl)-1H-pyrazol-1-yl)piperidin-1-yl)-7-oxoheptyl)-2-(2,6-dioxopiperidin-3-yl)isoindoline-1,3-dione] | 137
O=C1CCC(N2C(=O)c3ccc(OCCCCCC(=O)N4CCC(n5cc(-c6cnc7cccc(-c8cc(F)c(CN9CCOCC9)c(F)c8)c7n6)cn5)CC4)cc3C2=O)C(=O)N1 (stereo not drawn) [JA-260, 5-((6-(4-(4-(8-(3,5-Difluoro-4-(morpholinomethyl)phenyl)quinoxalin-2-yl)-1H-pyrazol-1-yl)piperidin-1-yl)-6-oxohexyl)oxy)-2-(2,6-dioxopiperidin-3-yl)isoindoline-1,3-dione] | 164
CS(=O)(=O)c1ccc(-c2cccc3nc(Nc4ccc(N5CCN(C(=O)CCCCCOc6ccc7c(c6)CN(C6CCC(=O)NC6=O)C7=O)CC5)cc4)nn23)cc1 (stereo not drawn) [JA-261, 3-(5-((6-(4-(4-((5-(4-(methylsulfonyl)phenyl)-[1,2,4]triazolo[1,5-a]pyridin-2-yl)amino)phenyl)piperazin-1-yl)-6-oxohexyl)oxy)-1-oxoisoindolin-2-yl)piperidine-2,6-dione] | 32.8
CS(=O)(=O)c1ccc(-c2cccc3nc(Nc4ccc(N5CCN(C(=O)CCCCC#Cc6ccc7c(c6)C(=O)N(C6CCC(=O)NC6=O)C7)CC5)cc4)nn23)cc1 (stereo not drawn) [JA-262, 3-(6-(7-(4-(4-((5-(4-(Methylsulfonyl)phenyl)-[1,2,4]triazolo[1,5-a]pyridin-2-yl)amino)phenyl)piperazin-1-yl)-7-oxohept-1-yn-1-yl)-1-oxoisoindolin-2-yl)piperidine-2,6-dione] | > 10000

Further lines, results first:

IC50 [nM] | Compound
647 | O=C1CCC(N2C(=O)c3ccc(C#CCCCCC(=O)N4CCC(n5cc(-c6cnc7cccc(-c8cc(F)c(CN9CCOCC9)c(F)c8)c7n6)cn5)CC4)cc3C2=O)C(=O)N1 (stereo not drawn) [JA-258, 5-(7-(4-(4-(8-(3,5-Difluoro-4-(morpholinomethyl)phenyl)quinoxalin-2-yl)-1H-pyrazol-1-yl)piperidin-1-yl)-7-oxohept-1-yn-1-yl)-2-(2,6-dioxopiperidin-3-yl)isoindoline-1,3-dione]
> 10000 | O=C1CCC(N2Cc3ccc(C#CCCCCC(=O)N4CCC(n5cc(-c6cnc7cccc(-c8cc(F)c(CN9CCOCC9)c(F)c8)c7n6)cn5)CC4)cc3C2=O)C(=O)N1 (stereo not drawn) [JA-259, 3-(6-(7-(4-(4-(8-(3,5-Difluoro-4-(morpholinomethyl)phenyl)quinoxalin-2-yl)-1H-pyrazol-1-yl)piperidin-1-yl)-7-oxohept-1-yn-1-yl)-1-oxoisoindolin-2-yl)piperidine-2,6-dione]
3.6 | O=C1CCC(N2Cc3cc(OCCCCCC(=O)N4CCC(n5cc(-c6cnc7cccc(-c8cc(F)c(CN9CCOCC9)c(F)c8)c7n6)cn5)CC4)ccc3C2=O)C(=O)N1 (stereo not drawn) [JA-263, 3-(5-((6-(4-(4-(8-(3,5-difluoro-4-(morpholinomethyl)phenyl)quinoxalin-2-yl)-1H-pyrazol-1-yl)piperidin-1-yl)-6-oxohexyl)oxy)-1-oxoisoindolin-2-yl)piperidine-2,6-dione]
98.6 | O=C1CCC(N2C(=O)c3ccc(C#CCCCCCN4CCC(n5cc(-c6cnc7cccc(-c8cc(F)c(CN9CCOCC9)c(F)c8)c7n6)cn5)CC4)cc3C2=O)C(=O)N1 (stereo not drawn) [JA-264, 5-(7-(4-(4-(8-(3,5-difluoro-4-(morpholinomethyl)phenyl)quinoxalin-2-yl)-1H-pyrazol-1-yl)piperidin-1-yl)hept-1-yn-1-yl)-2-(2,6-dioxopiperidin-3-yl)isoindoline-1,3-dione]
